Laboratory results as given in ChEMBL document CHEMBL1132762, “RGD mimetics containing a central hydantoin scaffold: alpkha(v)beta3 vs alpha(IIb)beta3 selectivity requirements” (Bioorg Med Chem Lett, 2000).
pIC50: −log10 of the molar value.

Experiments:
[1] = biological target: Integrin alpha-IIb/beta-3 (Homo sapiens, UniProt P05106+P08514); assay: Inhibition of fibrinogen binding to integrin alphaIIb-beta3; format: protein-complex assay
Integrin alpha-V/beta-3 = Integrin alpha-V/beta-3 (Homo sapiens, UniProt P05106+P06756); assay: Inhibition of Kistrin binding to integrin alphaV-beta3; format: protein-complex assay
Integrin alpha-V/beta-3, sequence (P05106 27-788 limits assumed): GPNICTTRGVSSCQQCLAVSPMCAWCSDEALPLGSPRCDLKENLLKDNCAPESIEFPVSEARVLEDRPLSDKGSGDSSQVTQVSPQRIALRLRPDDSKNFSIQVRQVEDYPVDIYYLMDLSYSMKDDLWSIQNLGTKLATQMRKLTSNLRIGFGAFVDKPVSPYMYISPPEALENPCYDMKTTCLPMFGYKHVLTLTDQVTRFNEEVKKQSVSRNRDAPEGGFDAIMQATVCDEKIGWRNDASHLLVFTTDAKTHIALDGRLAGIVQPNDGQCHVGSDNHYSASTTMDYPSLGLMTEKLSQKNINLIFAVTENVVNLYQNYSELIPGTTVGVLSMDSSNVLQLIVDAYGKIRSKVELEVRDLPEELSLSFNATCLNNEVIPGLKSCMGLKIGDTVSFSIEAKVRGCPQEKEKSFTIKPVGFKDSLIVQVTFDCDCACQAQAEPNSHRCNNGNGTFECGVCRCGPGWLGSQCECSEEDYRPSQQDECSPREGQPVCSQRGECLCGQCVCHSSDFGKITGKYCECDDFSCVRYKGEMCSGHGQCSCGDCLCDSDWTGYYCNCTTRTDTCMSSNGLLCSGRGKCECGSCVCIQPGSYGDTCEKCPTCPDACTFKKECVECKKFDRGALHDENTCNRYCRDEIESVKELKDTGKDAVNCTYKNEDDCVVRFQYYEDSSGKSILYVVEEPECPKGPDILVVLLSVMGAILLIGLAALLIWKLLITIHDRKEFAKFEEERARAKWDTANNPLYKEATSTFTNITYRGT
Integrin alpha-V/beta-3, sequence (P06756 31-889 limits assumed): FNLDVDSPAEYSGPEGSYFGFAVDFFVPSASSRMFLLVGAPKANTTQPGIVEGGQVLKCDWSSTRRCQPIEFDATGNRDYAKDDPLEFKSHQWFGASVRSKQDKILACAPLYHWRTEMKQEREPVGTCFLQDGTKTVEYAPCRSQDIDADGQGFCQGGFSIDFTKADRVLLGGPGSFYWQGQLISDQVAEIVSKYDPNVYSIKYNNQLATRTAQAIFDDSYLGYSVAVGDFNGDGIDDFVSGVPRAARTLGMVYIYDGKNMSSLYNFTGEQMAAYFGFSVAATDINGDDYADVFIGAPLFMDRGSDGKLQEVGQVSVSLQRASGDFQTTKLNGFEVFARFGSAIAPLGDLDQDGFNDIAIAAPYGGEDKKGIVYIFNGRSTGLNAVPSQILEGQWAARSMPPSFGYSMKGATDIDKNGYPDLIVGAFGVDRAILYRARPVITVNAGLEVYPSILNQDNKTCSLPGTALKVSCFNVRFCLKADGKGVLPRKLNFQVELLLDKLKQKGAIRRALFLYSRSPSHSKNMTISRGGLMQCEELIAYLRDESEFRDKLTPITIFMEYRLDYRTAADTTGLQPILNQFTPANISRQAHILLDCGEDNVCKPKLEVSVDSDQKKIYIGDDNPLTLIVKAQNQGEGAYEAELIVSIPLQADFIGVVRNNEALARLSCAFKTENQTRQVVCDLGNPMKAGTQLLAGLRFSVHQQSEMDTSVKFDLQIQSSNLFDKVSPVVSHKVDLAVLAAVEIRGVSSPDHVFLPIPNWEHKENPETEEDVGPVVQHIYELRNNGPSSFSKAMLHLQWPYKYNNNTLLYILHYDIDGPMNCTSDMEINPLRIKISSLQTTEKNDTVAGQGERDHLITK
Integrin alpha-V/beta-3, sequence (P06756 891-1048 limits assumed): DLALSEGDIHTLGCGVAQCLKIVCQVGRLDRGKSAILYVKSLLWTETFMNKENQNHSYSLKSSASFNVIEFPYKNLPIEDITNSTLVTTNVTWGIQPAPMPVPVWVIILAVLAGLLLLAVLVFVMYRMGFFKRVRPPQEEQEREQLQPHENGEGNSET

Integrin alpha-IIb/beta-3, sequence (P05106 27-788 limits assumed): as the sequence (P05106 27-788 limits assumed) above
Integrin alpha-IIb/beta-3, sequence (P08514 32-887 limits assumed): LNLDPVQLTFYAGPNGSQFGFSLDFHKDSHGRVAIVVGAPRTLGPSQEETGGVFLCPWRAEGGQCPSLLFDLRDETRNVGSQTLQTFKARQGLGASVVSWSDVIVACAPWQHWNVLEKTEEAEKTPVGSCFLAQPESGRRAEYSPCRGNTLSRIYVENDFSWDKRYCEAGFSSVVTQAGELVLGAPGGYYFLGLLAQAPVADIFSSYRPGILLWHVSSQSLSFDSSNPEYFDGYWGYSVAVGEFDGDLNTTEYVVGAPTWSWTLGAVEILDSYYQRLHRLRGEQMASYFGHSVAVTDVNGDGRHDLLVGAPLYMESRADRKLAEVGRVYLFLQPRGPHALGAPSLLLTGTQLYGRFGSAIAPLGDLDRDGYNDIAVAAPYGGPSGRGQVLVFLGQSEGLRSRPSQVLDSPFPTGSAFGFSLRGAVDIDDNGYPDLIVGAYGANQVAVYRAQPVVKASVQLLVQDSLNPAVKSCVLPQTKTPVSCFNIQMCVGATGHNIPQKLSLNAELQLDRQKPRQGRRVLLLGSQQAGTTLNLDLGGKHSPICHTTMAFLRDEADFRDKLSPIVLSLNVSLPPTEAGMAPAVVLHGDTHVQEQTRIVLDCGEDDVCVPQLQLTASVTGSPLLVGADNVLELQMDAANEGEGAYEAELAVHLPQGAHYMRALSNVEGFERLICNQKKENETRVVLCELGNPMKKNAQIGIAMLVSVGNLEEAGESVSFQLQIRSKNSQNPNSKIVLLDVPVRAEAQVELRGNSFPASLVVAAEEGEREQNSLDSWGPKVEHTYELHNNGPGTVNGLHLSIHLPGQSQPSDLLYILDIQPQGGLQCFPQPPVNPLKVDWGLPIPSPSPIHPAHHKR
Integrin alpha-IIb/beta-3, sequence (P08514 891-1039 limits assumed): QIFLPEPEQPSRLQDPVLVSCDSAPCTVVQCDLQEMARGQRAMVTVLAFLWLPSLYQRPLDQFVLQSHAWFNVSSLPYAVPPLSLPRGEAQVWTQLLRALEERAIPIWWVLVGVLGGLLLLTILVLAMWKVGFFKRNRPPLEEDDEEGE

| SMILES | pIC50 [1] | pIC50 (Integrin alpha-V/beta-3) |
| --- | --- | --- |
| N=C(N)NCCC[C@@H]1NC(=O)N(CC(=O)NCC(/N=C(\S)NCc2ccccc2)C(=O)O)C1=O (some centres not stated) | 5.00 | 5.52 |
| O=C(C[C@@H]1NC(=O)N(CC(=O)NCC(NC(=O)OCc2ccccc2)C(=O)O)C1=O)NCc1nc2ccccc2[nH]1 (some centres not stated) |  | 4.82 |
| CCCCS(=O)(=O)NC(CNC(=O)CN1C(=O)N[C@@H](CCCN=C(N)N)C1=O)C(=O)O (some centres not stated) | 6.46 | 6.12 |
| O=C(CN1C(=O)N[C@@H](CC(=O)NNC2=NCCN2)C1=O)NCC(NC(=O)OCc1ccccc1)C(=O)O (some centres not stated) | < 5.00 | 6.24 |
| N=C(N)NCC[C@@H]1NC(=O)N(CC(=O)NCC(NC(=O)OCc2ccccc2)C(=O)O)C1=O (some centres not stated) | 5.00 | 5.30 |
| O=C(CN1C(=O)N[C@@H](CCCNc2ncccn2)C1=O)NCC(NC(=O)OCc1ccccc1)C(=O)O (some centres not stated) | < 5.00 | 5.78 |
| N=C(N)NC[C@@H]1NC(=O)N(CC(=O)NCC(NC(=O)OCc2ccccc2)C(=O)O)C1=O (some centres not stated) | 5.00 | 4.82 |
| N=C(N)NCCC[C@@H]1NC(=O)N(CC(=O)NCC(NC(=O)NCc2ccccc2)C(=O)O)C1=O (some centres not stated) | 6.74 | 6.24 |

The next compounds have a higher pIC50 (Integrin alpha-V/beta-3) than those just listed; values first:

| pIC50 [1] | pIC50 (Integrin alpha-V/beta-3) | SMILES |
| --- | --- | --- |
| 6.26 | 6.46 | N=C(N)NCCC[C@@H]1NC(=O)N(CC(=O)NCC(NC(=O)CCc2ccccc2)C(=O)O)C1=O (some centres not stated) |
| 6.70 | 6.70 | N=C(N)NCCC[C@@H]1NC(=O)N(CC(=O)NCC(NC(=O)c2ccc3ccccc3c2)C(=O)O)C1=O (some centres not stated) |
| 6.07 | 6.70 | N=C(N)NCCCC[C@@H]1NC(=O)N(CC(=O)NCC(NC(=O)OCc2ccccc2)C(=O)O)C1=O (some centres not stated) |
| 5.62 | 7.10 | N=C(N)NCCC[C@@H]1NC(=O)N(CC(=O)NCC(NC(=O)OCc2ccccc2)C(=O)O)C1=O (some centres not stated) |
| < 5.00 | 7.40 | O=C(CN1C(=O)N[C@@H](CCCNc2nc3ccccc3[nH]2)C1=O)NCC(NC(=O)OCc1ccccc1)C(=O)O (some centres not stated) |
| < 5.00 | 7.70 | O=C(CN1C(=O)N[C@@H](CCCNC2=NCCN2)C1=O)NCC(NC(=O)OCc1ccccc1)C(=O)O (some centres not stated) |
